Test results as given in ChEMBL document CHEMBL3994622, “Design and synthesis of new RAF kinase-inhibiting antiproliferative quinoline derivatives. Part 2: Diarylurea derivatives” (Eur J Med Chem, 2017).

Tests used:
HOP-92 = assay: Growth inhibition of human HOP92 cells incubated for 48 hrs by sulforhodamine B assay; type: functional; settings: HOP-92, 48 h
HCT-116 = assay: Growth inhibition of human HCT116 cells incubated for 48 hrs by sulforhodamine B assay; type: functional; settings: HCT-116, 48 h
A549 = assay: Growth inhibition of human A549/ATCC cells incubated for 48 hrs by sulforhodamine B assay; type: functional; settings: A549, 48 h
ACHN = assay: Growth inhibition of human ACHN cells incubated for 48 hrs by sulforhodamine B assay; type: functional
HCT-15 = assay: Growth inhibition of human HCT15 cells incubated for 48 hrs by sulforhodamine B assay; type: functional; settings: HCT-15, 48 h
NCI-H522 = assay: Growth inhibition of human NCI-H522 cells incubated for 48 hrs by sulforhodamine B assay; type: functional; settings: NCI-H522, 48 h
OVCAR-8 = assay: Growth inhibition of human OVCAR8 cells incubated for 48 hrs by sulforhodamine B assay; type: functional; settings: OVCAR-8, 48 h
MDA-MB-435 = assay: Growth inhibition of human MDA-MB-435 cells incubated for 48 hrs by sulforhodamine B assay; type: functional; settings: MDA-MB-435, 48 h
OVCAR-5 = assay: Growth inhibition of human OVCAR5 cells incubated for 48 hrs by sulforhodamine B assay; type: functional; settings: OVCAR-5, 48 h
RXF 393 = assay: Growth inhibition of human RXF393 cells incubated for 48 hrs by sulforhodamine B assay; type: functional; settings: RXF 393, 48 h
RPMI-8226 = assay: Growth inhibition of human RPMI8226 cells incubated for 48 hrs by sulforhodamine B assay; type: functional; settings: RPMI-8226, 48 h
SK-MEL-28 = assay: Growth inhibition of human SK-MEL-28 cells incubated for 48 hrs by sulforhodamine B assay; type: functional; settings: SK-MEL-28, 48 h
MCF7 = assay: Growth inhibition of human MCF7 cells incubated for 48 hrs by sulforhodamine B assay; type: functional; settings: MCF7, 48 h
CCRF-CEM = assay: Growth inhibition of human CCRF-CEM cells incubated for 48 hrs by sulforhodamine B assay; type: functional
NCI-H322M = assay: Growth inhibition of human NCI-H322M cells incubated for 48 hrs by sulforhodamine B assay; type: functional
SK-OV-3 = assay: Growth inhibition of human SKOV3 cells incubated for 48 hrs by sulforhodamine B assay; type: functional; settings: SK-OV-3, 48 h
[1] = target: RAF proto-oncogene serine/threonine-protein kinase (Homo sapiens, UniProt P04049); assay: Inhibition of human c-RAF at 10 uM using MEK1 as substrate in presence of [33P]ATP by Hotspot assay relative to control
SK-MEL-2 = assay: Growth inhibition of human SK-MEL-2 cells incubated for 48 hrs by sulforhodamine B assay; type: functional; settings: SK-MEL-2, 48 h
NCI/ADR-RES = assay: Growth inhibition of human NCI/ADR-RES cells incubated for 48 hrs by sulforhodamine B assay; type: functional
UACC-62 = assay: Growth inhibition of human UACC62 cells incubated for 48 hrs by sulforhodamine B assay; type: functional; settings: UACC-62, 48 h
SF-268 = assay: Growth inhibition of human SF268 cells incubated for 48 hrs by sulforhodamine B assay; type: functional; settings: SF-268, 48 h
NCI-H23 = assay: Growth inhibition of human NCI-H23 cells incubated for 48 hrs by sulforhodamine B assay; type: functional; settings: NCI-H23, 48 h
SK-MEL-5 = assay: Growth inhibition of human SK-MEL-5 cells incubated for 48 hrs by sulforhodamine B assay; type: functional; settings: SK-MEL-5, 48 h
HOP-62 = assay: Growth inhibition of human HOP62 cells incubated for 48 hrs by sulforhodamine B assay; type: functional; settings: HOP-62, 48 h
NCI-H226 = assay: Growth inhibition of human NCI-H226 cells incubated for 48 hrs by sulforhodamine B assay; type: functional; settings: NCI-H226, 48 h
BT-549 = assay: Growth inhibition of human BT549 cells incubated for 48 hrs by sulforhodamine B assay; type: functional; settings: BT-549, 48 h
SR = assay: Growth inhibition of human SR cells incubated for 48 hrs by sulforhodamine B assay; type: functional
SNB-75 = assay: Growth inhibition of human SNB75 cells incubated for 48 hrs by sulforhodamine B assay; type: functional; settings: SNB-75, 48 h
K562 = assay: Growth inhibition of human K562 cells incubated for 48 hrs by sulforhodamine B assay; type: functional; settings: K562, 48 h
MOLT-4 = assay: Growth inhibition of human MOLT4 cells incubated for 48 hrs by sulforhodamine B assay; type: functional; settings: MOLT-4, 48 h
Malme-3M = assay: Growth inhibition of human MALME-3M cells incubated for 48 hrs by sulforhodamine B assay; type: functional
SN12C = assay: Growth inhibition of human SN12C cells incubated for 48 hrs by sulforhodamine B assay; type: functional
[2] = read-out: LC50 (the source's name)

Sequence of RAF proto-oncogene serine/threonine-protein kinase (P04049 whole entry): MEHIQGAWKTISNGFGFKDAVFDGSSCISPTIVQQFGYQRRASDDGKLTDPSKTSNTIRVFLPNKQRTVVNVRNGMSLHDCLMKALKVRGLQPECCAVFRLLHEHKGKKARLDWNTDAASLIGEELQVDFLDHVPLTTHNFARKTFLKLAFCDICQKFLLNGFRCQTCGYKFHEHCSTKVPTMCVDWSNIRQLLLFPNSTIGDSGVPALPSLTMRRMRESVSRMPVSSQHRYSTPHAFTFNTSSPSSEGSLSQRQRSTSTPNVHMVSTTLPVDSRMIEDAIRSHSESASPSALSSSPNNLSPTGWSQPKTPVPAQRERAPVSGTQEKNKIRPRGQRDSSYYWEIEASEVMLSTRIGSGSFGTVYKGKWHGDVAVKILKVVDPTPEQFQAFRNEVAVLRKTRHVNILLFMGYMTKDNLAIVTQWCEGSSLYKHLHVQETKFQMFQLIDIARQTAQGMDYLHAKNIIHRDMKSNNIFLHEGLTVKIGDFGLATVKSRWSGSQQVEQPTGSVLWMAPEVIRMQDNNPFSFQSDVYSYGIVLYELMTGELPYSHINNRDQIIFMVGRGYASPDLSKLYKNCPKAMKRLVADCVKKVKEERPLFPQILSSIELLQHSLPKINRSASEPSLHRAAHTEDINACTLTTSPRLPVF

## COc1cc2cc(Oc3ccc(NC(=O)Nc4cc(C(F)(F)F)cc(C(F)(F)F)c4)cc3)c(C)nc2cc1OC
HOP-92
  GI50: 1120 nM
  LC50: 40.9 µM
  TGI: 3.9 µM
HCT-116
  GI50: 589 to 590 nM
  LC50 (50% lethal concentration): 5.16 µM
  TGI: 1920 nM
A549
  GI50: 1420 nM
  TGI: 4.75 µM
A549; [2]
  CC50: 22.5 µM
ACHN
  GI50: 390 nM
  TGI: 1690 nM
ACHN; [2]
  CC50: 51.6 µM
HCT-15
  GI50: 668 to 670 nM
  LC50 (lethal concentration, 50% net cell kill): 4.91 µM
  TGI: 2040 nM
NCI-H522
  GI50: 1250 nM
  TGI: 2950 nM
NCI-H522; [2]
  CC50: 6.95 µM
OVCAR-8
  GI50: 1630 nM
  TGI: 4.22 µM
OVCAR-8; [2]
  CC50: > 100 µM
MDA-MB-435
  GI50: 1800 nM
  TGI: 4.28 µM
MDA-MB-435; [2]
  CC50: 11.6 µM
OVCAR-5
  GI50: 1930 nM
  TGI: 4.14 µM
OVCAR-5; [2]
  CC50: 8.88 µM
RXF 393
  GI50: 2060 nM
  TGI: 4.78 µM
RXF 393; [2]
  CC50: 5.94 µM
RPMI-8226
  GI50: 410 to 460 nM
  LC50 (lethal concentration, 50% cell kill): > 100 µM
  TGI: 5.51 µM
SK-MEL-28
  GI50: 1190 nM
  TGI: 3.09 µM
SK-MEL-28; [2]
  CC50: 8.03 µM
MCF7
  GI50: 540 nM
  TGI: 2360 nM
MCF7; [2]
  CC50: 5.75 µM
CCRF-CEM
  GI50: 640 nM
  TGI: 3.47 µM
CCRF-CEM; [2]
  CC50: > 100 µM
NCI-H322M
  GI50: 1160 nM
  TGI: 2570 nM
NCI-H322M; [2]
  CC50: 5.7 µM
SK-OV-3
  GI50: 1710 nM
  TGI: 3.47 µM
SK-OV-3; [2]
  CC50: 5.91 µM
[1]
  inhibition: 92.4%
SK-MEL-2
  GI50: 1820 nM
  TGI: 4.24 µM
SK-MEL-2; [2]
  CC50: 9.88 µM
NCI/ADR-RES
  GI50: 1270 nM
  TGI: 3.44 µM
NCI/ADR-RES; [2]
  CC50: 7.04 µM
UACC-62
  GI50: 560 nM
  TGI: 2090 nM
UACC-62; [2]
  CC50: 6.03 µM
SF-268
  GI50: 1620 nM
  LC50 (50% lethal concentration): 8.37 µM
  TGI: 3.68 µM
NCI-H23
  GI50: 639 to 640 nM
  TGI: 3.55 µM
NCI-H23; [2]
  CC50: 32.3 µM
SK-MEL-5
  GI50: 1620 nM
  TGI: 3.28 µM
SK-MEL-5; [2]
  CC50: 6.67 µM
HOP-62
  GI50: 1350 nM
  TGI: 2880 nM
HOP-62; [2]
  CC50: 6.15 µM
NCI-H226
  GI50: 1800 nM
  TGI: 3.91 µM
NCI-H226; [2]
  CC50: 8.53 µM
BT-549
  GI50: 1750 nM
  TGI: 3.76 µM
BT-549; [2]
  CC50: 30.1 µM
SR
  GI50: 1620 nM
  TGI: 5.97 µM
SR; [2]
  CC50: > 100 µM
SNB-75
  GI50: 1730 nM
  TGI: 5.05 µM
SNB-75; [2]
  CC50: > 100 µM
K562
  GI50: 570 nM
  LC50 (concentration killing 50% of cells): 17 µM
  TGI: 2530 nM
MOLT-4
  GI50: 1130 nM
  LC50: > 100 µM
  TGI: 4.04 µM
Malme-3M
  GI50: 1100 nM
  TGI: 3.46 µM
Malme-3M; [2]
  CC50: 13.6 µM
SN12C
  GI50: 590 nM
  TGI: 2090 nM
SN12C; [2]
  CC50: 32.5 µM
